Tested on: Metabolism protein genes
Assay: DNA chip mRNA expression in yeast, metabolism protein genes (Table 7)
Format: cell-based, Saccharomyces cerevisiae S288C
Procedure: Yeast (Saccharomyces cerevisiae S288C (α SUC2mal mel gap2 CUP1)) were incubated at 25° C. on YPD medium (yeast extract 1%, polypepton 2%, glucose 2%). One of toxic chemical substances was added to the cells at logarithmic growth phase, and the cells were further incubated for two hours. Cells were cultured without any chemical substance in the same condition, and were used as control. Concentrations of the chemical substances were defined to inhibit the growth of the yeast but not lead to death.
After completion of the incubation, the culture was centrifuged to collect the cells. To the cells, sodium acetate buffer (50 mM sodium acetate, 10 mM EDTA, 1% SDS) was added, and the mixture was shaken at 65° C. for five minutes, followed by returning to room temperature, and obtaining the supernatant, of which the procedures were repeated two times. To the supernatant, ½ amount of a solution of phenol/chloroform was added, and the mixture was centrifuged to give a supernatant, which was added with an equal amount of chloroform, and the mixture was centrifuged to give a supernatant. To the supernatant, an equal amount of isopropanol containing 0.3 M sodium acetate was added, and the mixture was allowed to stand at room temperature for 30 minutes, after which the mixture was centrifuged to give a sediment of the whole RNAs. Seventy % ethanol was added to the sediment, and the mixture was again centrifuged to give a sediment, which was then dried and dissolved in water. mRNA was isolated from the whole RNAs as followings. In view of the fact that a poly A chain is attached to the 3′ terminus of mRNA, a polynucleotide having a poly T structure which was immobilized on the surface of latex beads was used to trap the mRNA, and then the mRNA was washed and eluted with spine column (Oligotex-dT30<Super>mRNA Purification Kit, Takara). Reverse transcription of the mRNA was conducted with a reverse transcriptase (Super Script II Reverse Transcriptase; catalogue No. 18064-014, GibcoBRL) using fluorescence-labeled nucleotides to give cDNAs that were introduced with Cy3-dUTP or Cy5-dUTP during the reverse transcription.
The labeled cDNAs were dissolved in TE buffer (10mM Tris-HCl/1 mM EDTA, pH8.0), and the solution was dropped on the DNA chip containing the whole genes of yeast (DNA Chip Research Inc. Japan) so that the cDNAs were hybridized on the DNA chip at 65° C. for over 12 hours. The fluoresces intensity of the DNA chip was read with a scanner, and the ratio relative to the fluorescence intensity resulting from the absence of chemical substance was estimated as the following, which is shown in Tables 1 to 9: […]

Compound: N#Cc1c(Cl)c(Cl)c(Cl)c(C#N)c1Cl [(9), 2,4,5,6-tetrachloro-1,3-benzenedicarbonitrile]
- The level of expressed mRNA in the presence of chemical substance/The level of expressed mRNA in the absence of chemical substance (yeast gene YAL012W): 4.7
- The level of expressed mRNA in the presence of chemical substance/The level of expressed mRNA in the absence of chemical substance (yeast gene YAL038W): 0.1
- The level of expressed mRNA in the presence of chemical substance/The level of expressed mRNA in the absence of chemical substance (yeast gene YAL044C): 0.4
- The level of expressed mRNA in the presence of chemical substance/The level of expressed mRNA in the absence of chemical substance (yeast gene YAL054C): 8.9
- The level of expressed mRNA in the presence of chemical substance/The level of expressed mRNA in the absence of chemical substance (yeast gene YAR071W): 0.3
- The level of expressed mRNA in the presence of chemical substance/The level of expressed mRNA in the absence of chemical substance (yeast gene YBL001C): 1.5
- The level of expressed mRNA in the presence of chemical substance/The level of expressed mRNA in the absence of chemical substance (yeast gene YBL033C): 6.6
- The level of expressed mRNA in the presence of chemical substance/The level of expressed mRNA in the absence of chemical substance (yeast gene YBL086C): 3.3
- level of expressed mRNA in the presence/in the absence of chemical substance (yeast gene YBR003W): 1.0
- level of expressed mRNA in the presence/in the absence of chemical substance (yeast gene YBR011C): 2.2
- The level of expressed mRNA in the presence of chemical substance/The level of expressed mRNA in the absence of chemical substance (yeast gene YBR014C): 1.3
- The level of expressed mRNA in the presence of chemical substance/The level of expressed mRNA in the absence of chemical substance (yeast gene YBR023C): 0.3
- The level of expressed mRNA in the presence of chemical substance/The level of expressed mRNA in the absence of chemical substance (yeast gene YBR029C): 2.0
- The level of expressed mRNA in the presence of chemical substance/The level of expressed mRNA in the absence of chemical substance (yeast gene YBR035C): 2.2
- The level of expressed mRNA in the presence of chemical substance/The level of expressed mRNA in the absence of chemical substance (yeast gene YBR068C): 0.8
- The level of expressed mRNA in the presence of chemical substance/The level of expressed mRNA in the absence of chemical substance (yeast gene YBR183W): 0.4
- The level of expressed mRNA in the presence of chemical substance/The level of expressed mRNA in the absence of chemical substance (yeast gene YBR222C): 0.7
- The level of expressed mRNA in the presence of chemical substance/The level of expressed mRNA in the absence of chemical substance (yeast gene YBR256C): 18.1
- The level of expressed mRNA in the presence of chemical substance/The level of expressed mRNA in the absence of chemical substance (yeast gene YBR296C): 0.4
- The level of expressed mRNA in the presence of chemical substance/The level of expressed mRNA in the absence of chemical substance (yeast gene YCL009C): 0.9
- The level of expressed mRNA in the presence of chemical substance/The level of expressed mRNA in the absence of chemical substance (yeast gene YCL064C): 1.7
- level of expressed mRNA in the presence/in the absence of chemical substance (yeast gene YCR010C): 0.9
- level of expressed mRNA in the presence/in the absence of chemical substance (yeast gene YCR034W): 0.1
- The level of expressed mRNA in the presence of chemical substance/The level of expressed mRNA in the absence of chemical substance (yeast gene YCR036W): 2.6
- The level of expressed mRNA in the presence of chemical substance/The level of expressed mRNA in the absence of chemical substance (yeast gene YCR048W): 0.8
- The level of expressed mRNA in the presence of chemical substance/The level of expressed mRNA in the absence of chemical substance (yeast gene YCR098C): 1.4
- The level of expressed mRNA in the presence of chemical substance/The level of expressed mRNA in the absence of chemical substance (yeast gene YDL124W): 3.3
- The level of expressed mRNA in the presence of chemical substance/The level of expressed mRNA in the absence of chemical substance (yeast gene YDR009W): 1.3
- The level of expressed mRNA in the presence of chemical substance/The level of expressed mRNA in the absence of chemical substance (yeast gene YDR019C): 0.4
- level of expressed mRNA in the presence/in the absence of chemical substance (yeast gene YDR050C): 0.4
- level of expressed mRNA in the presence/in the absence of chemical substance (yeast gene YDR123C): 0.5
- level of expressed mRNA in the presence/in the absence of chemical substance (yeast gene YDR178W): 0.9
- level of expressed mRNA in the presence/in the absence of chemical substance (yeast gene YDR277C): 0.2
- level of expressed mRNA in the presence/in the absence of chemical substance (yeast gene YDR284C): 0.9
- level of expressed mRNA in the presence/in the absence of chemical substance (yeast gene YDR345C): 0.2
- The level of expressed mRNA in the presence of chemical substance/The level of expressed mRNA in the absence of chemical substance (yeast gene YDR380W): 0.2
- level of expressed mRNA in the presence/in the absence of chemical substance (yeast gene YDR400W): 1.1
- level of expressed mRNA in the presence/in the absence of chemical substance (yeast gene YDR408C): 0.3
- level of expressed mRNA in the presence/in the absence of chemical substance (yeast gene YDR483W): 0.4
- The level of expressed mRNA in the presence of chemical substance/The level of expressed mRNA in the absence of chemical substance (yeast gene YDR487C): 2.7
- The level of expressed mRNA in the presence of chemical substance/The level of expressed mRNA in the absence of chemical substance (yeast gene YDR497C): 0.4
- The level of expressed mRNA in the presence of chemical substance/The level of expressed mRNA in the absence of chemical substance (yeast gene YDR502C): 1.6
- The level of expressed mRNA in the presence of chemical substance/The level of expressed mRNA in the absence of chemical substance (yeast gene YDR516C): 1.8
- level of expressed mRNA in the presence/in the absence of chemical substance (yeast gene YEL063C): 0.8
- The level of expressed mRNA in the presence of chemical substance/The level of expressed mRNA in the absence of chemical substance (yeast gene YER026C): 0.9
- The level of expressed mRNA in the presence of chemical substance/The level of expressed mRNA in the absence of chemical substance (yeast gene YER053C): 1.3
- The level of expressed mRNA in the presence of chemical substance/The level of expressed mRNA in the absence of chemical substance (yeast gene YER069W): 0.8
- level of expressed mRNA in the presence/in the absence of chemical substance (yeast gene YER081W): 1.8
- The level of expressed mRNA in the presence of chemical substance/The level of expressed mRNA in the absence of chemical substance (yeast gene YER096W): 7.5
- level of expressed mRNA in the presence/in the absence of chemical substance (yeast gene YER120W): 0.8

Reference: patent publication US8192962B2, “Processes for detecting toxic substances” (Daikin Industries, Ltd., priority 2001, dated 2012)
